Activity calls are given as the source filed them.
What was measured:
[1] = NIH-3T3 fibroblast cytotoxicity, dose response, cytotoxicity control, cell-based, fluorescence, Alamar Blue, secondary assay (AID 2327); type: functional;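 note: NIH-3T3 mouse fibroblasts cultured with fluconazole at 8 µg/mL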
[2] = C. albicans growth with fluconazole, confirmation, fluorescence, retest (AID 2467); type: functional, cell-based
[3] = target: T1, Rac GTPase-activating protein 1 (Homo sapiens, UniProt Q9H0H5); assay: MgcRacGAP GTPase-activating activity inhibitors, confirmation, biochemical, ADP Hunter fluorescence, primary and confirmatory (AID 624330); type: functional
T1 sequence (Q9H0H5 whole entry): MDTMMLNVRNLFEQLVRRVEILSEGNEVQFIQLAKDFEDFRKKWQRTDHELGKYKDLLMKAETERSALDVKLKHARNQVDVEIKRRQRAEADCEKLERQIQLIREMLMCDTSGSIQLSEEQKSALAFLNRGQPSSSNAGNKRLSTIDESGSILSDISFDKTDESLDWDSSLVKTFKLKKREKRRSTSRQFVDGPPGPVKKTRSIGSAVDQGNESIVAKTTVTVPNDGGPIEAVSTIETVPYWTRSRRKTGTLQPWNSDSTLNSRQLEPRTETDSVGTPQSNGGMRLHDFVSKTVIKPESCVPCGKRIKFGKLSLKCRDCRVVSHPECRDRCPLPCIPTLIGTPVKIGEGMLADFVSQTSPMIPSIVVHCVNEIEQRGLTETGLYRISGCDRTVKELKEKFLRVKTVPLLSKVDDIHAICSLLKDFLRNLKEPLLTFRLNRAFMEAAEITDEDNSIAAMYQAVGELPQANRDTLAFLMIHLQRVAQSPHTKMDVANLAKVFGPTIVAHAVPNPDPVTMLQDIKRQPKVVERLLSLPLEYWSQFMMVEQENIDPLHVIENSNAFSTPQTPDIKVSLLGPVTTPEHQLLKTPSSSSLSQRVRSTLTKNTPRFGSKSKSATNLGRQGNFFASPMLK

Nonstructural protein 1 = Nonstructural protein 1 (Influenza A virus, UniProt Q194T2); type: functional, Influenza A virus (A/California/07/2009(H1N1))
[4] = target: T2, Zinc finger protein mex-5 (Caenorhabditis elegans, UniProt Q9XUB2); assay: MEX-5/TCR-2 RNA interaction inhibitors, dose response, biochemical, C. elegans, fluorescence polarization (AID 1960)
T2 sequence (Q9XUB2 whole entry): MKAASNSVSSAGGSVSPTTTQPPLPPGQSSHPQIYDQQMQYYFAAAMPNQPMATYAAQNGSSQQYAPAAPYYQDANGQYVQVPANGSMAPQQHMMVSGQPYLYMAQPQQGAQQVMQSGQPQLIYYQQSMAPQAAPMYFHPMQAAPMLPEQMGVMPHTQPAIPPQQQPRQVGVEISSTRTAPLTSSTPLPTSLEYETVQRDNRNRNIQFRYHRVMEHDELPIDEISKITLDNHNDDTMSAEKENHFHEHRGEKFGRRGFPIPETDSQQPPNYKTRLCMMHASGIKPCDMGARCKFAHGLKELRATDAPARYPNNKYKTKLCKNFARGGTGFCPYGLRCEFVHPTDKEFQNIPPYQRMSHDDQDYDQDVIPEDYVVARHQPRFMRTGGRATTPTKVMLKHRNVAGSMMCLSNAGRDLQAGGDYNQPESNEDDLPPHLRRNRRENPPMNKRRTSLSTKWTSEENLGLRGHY

[5] = target: T3, RNA-binding protein pos-1 (Caenorhabditis elegans, UniProt G5EF15); assay: inhibitors of POS-1/mex-3 RNA binding, dose response, biochemical, fluorescence polarization (AID 1964);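 note: purified POS-1 fused to maltose binding protein made in E. coli; potency of compounds blocking POS-1 binding to fluorescent RNA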
T3 sequence (G5EF15 whole entry): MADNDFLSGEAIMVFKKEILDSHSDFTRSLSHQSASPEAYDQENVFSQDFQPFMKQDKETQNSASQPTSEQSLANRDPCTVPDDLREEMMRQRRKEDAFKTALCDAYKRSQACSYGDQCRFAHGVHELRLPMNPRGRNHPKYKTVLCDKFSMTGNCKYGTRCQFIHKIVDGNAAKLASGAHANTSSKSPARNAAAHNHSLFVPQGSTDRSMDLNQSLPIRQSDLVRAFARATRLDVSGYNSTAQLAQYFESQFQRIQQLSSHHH

Protein RecA = target: T4, Protein RecA (Mycobacterium tuberculosis, UniProt P9WHJ3); assay: Fluorescence Cell-Free Homogeneous Dose Retest to Identify Inhibitors of RecA-Intein Splicing Activity. [Related pubchem assays (depositor defined):AID2097, AID2223, AID489010, AID492950]; type: functional
T4 sequence (P9WHJ3 whole entry): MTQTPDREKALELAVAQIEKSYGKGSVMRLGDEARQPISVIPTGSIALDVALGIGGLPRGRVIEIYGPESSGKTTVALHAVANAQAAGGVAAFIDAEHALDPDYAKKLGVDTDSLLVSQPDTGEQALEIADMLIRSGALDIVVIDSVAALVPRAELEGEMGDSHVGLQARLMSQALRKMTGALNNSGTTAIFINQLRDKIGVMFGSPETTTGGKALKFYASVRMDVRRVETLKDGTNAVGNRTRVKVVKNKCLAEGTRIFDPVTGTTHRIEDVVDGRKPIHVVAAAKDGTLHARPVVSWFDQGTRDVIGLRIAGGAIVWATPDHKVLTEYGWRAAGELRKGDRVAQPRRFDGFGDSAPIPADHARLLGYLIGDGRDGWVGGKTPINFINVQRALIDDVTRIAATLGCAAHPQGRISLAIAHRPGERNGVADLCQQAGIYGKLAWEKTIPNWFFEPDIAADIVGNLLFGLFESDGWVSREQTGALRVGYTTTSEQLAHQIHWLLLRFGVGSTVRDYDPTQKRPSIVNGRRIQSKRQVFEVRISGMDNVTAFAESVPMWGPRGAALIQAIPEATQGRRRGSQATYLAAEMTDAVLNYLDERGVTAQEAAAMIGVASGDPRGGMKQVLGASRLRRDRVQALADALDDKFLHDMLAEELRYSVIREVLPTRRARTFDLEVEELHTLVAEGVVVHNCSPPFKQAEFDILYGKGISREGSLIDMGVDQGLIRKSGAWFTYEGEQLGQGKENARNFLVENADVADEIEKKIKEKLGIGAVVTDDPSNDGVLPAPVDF

[6] = target: T5, Heat shock factor protein 1 (Mus musculus, UniProt P38532); assay: HSF1 potentiators in luciferase reporter cells, confirmation, cell-based, NIH3T3, luminescence, dose retest (AID 435004); type: functional;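 note: stress induced by proteasome inhibitor MG132 added 30 min after compound; luciferase reporter driven by HSF1 response element in NIH3T3 cells; actives raise luminescence as potentiators of the MG132 stress response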
T5 sequence (P38532 whole entry): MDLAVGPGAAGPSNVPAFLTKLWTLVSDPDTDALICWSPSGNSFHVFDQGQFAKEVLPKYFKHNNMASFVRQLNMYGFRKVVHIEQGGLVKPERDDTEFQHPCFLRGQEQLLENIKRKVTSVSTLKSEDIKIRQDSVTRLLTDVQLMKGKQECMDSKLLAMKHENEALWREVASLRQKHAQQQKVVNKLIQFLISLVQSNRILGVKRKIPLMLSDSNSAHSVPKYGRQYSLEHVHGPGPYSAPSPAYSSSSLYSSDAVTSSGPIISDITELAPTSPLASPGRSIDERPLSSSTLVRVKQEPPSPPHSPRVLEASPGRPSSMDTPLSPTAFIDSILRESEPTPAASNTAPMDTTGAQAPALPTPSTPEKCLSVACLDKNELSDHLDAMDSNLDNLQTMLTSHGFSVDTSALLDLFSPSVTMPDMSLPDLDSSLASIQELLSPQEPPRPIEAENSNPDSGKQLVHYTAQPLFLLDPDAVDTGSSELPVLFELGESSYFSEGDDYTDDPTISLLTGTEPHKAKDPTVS

[7] = target: T6, Replicative DNA helicase DnaB (Mycobacterium tuberculosis, UniProt P9WMR3); assay: DnaB intein splicing inhibitors, dose response, biochemical, cell-free fluorescence (AID 449749); type: functional
T6 sequence (P9WMR3 whole entry): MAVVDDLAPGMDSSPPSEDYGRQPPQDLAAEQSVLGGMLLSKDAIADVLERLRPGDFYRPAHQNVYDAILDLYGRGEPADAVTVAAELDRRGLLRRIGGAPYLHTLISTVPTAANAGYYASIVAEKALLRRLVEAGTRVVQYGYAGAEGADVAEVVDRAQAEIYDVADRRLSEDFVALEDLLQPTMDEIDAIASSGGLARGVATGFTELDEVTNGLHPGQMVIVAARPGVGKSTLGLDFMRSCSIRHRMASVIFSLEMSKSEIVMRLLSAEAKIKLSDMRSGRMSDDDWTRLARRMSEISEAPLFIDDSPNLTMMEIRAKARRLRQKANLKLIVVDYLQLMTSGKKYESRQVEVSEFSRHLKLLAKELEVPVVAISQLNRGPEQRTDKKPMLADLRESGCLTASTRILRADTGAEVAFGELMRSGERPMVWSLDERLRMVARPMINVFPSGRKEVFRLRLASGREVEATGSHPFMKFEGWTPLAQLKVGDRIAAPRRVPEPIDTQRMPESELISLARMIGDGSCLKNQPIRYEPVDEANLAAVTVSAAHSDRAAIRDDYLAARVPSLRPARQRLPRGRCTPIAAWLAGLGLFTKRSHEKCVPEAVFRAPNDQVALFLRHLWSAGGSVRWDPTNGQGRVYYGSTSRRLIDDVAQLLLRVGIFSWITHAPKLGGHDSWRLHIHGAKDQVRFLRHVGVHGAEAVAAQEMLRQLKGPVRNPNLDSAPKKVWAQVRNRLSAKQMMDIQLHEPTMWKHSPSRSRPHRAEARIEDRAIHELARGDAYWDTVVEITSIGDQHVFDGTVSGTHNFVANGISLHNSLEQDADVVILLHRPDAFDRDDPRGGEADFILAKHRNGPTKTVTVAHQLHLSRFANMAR

[8] = inhibitors of clade B AD8 Env fusion, dose response, cell-based, cherry-pick (AID 652062); type: functional;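 note: luciferase signal from cell-cell fusion driven by HIV-1 clade B AD8 Env; potency is for inhibitors of fusion seen as a drop in luminescence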
INS1 = assay: beta cell apoptosis inhibitors, cytokine rescue, dose response, luminescence, retest (AID 449756); type: functional, cell-based; details: Rattus norvegicus;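 note: cell death triggered by IL-1 beta plus TNF-alpha plus IFN-gamma mixture; protective hits raise ATP signal compared with cytokine alone wells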

Chain of Nonstructural protein 1 (Q194T2 whole entry): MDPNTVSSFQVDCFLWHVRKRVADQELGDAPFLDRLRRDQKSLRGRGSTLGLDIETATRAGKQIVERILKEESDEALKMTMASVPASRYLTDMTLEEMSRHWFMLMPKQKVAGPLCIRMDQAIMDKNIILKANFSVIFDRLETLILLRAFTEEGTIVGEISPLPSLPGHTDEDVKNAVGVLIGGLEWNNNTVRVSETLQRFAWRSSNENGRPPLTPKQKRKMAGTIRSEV

Q: Which EC50 [1] does the source give for `Cc1nn(-c2ccccc2)c(C)c1C(=O)Nc1nnc(-c2ccco2)o1` here?
A: > 150 µM (inactive)

Q: And the EC50 [2]?
A: 1.03 µM (active)

Q: With `O=C(c1cccc(F)c1)N1CCN(Cc2cccc(Br)c2)CC1` as the molecule, how does the IC50 [3] read?
A: 136 µM (active)

Q: Which IC50 [3] does the source give for `COc1ccc(OCCOCCN2CCN(C)CC2)cc1` here?
A: 70.2 µM (active)

Q: With `Cc1cccc(-n2cnc(C(=O)NN=C(S)Nc3ccc(Cl)cc3)c2)n1` as the molecule, how does the IC50 (Nonstructural protein 1) read?
A: 8.22 µM (active)

Q: Which IC50 [3] does the source give for `COc1ccc(NC2CCCN(C(=O)COc3ccc(Cl)cc3C)C2)cc1OC` (configuration not stated) here?
A: 110 µM (active)

Q: With `COc1cc(C2CC(=O)Oc3c(C(CCN4CCCC(C)C4)c4ccc(N(C)C)cc4)c(OC)cc(OC)c32)cc(OC)c1OC` (configuration not stated) as the molecule, how does the IC50 (Nonstructural protein 1) read?
A: 28.5 µM (active)

Q: What does the source list for `COc1ccc(C(=O)On2c(-c3ccc(Br)cc3)nc3ccccc3c2=O)cc1`?
A: EC50 [1]: 6.36 µM (inconclusive); EC50 [2]: 1.8 µM (active)

Q: Which results are given for `CC(C)(C)c1ccc(SCC(N)=O)cc1`?
A: EC50 [1]: > 150 µM (inconclusive); EC50 [2]: > 38 µM (not active)

Q: For `O=[N+]([O-])c1cc(Br)c2nsnc2c1N1CCOCC1`, which IC50 (Nonstructural protein 1) is on record?
A: 27.5 µM (active)

Q: For `COc1ccc(N2CCN(CC(=O)N3c4ccccc4CC3C)CC2)cc1` (configuration not stated), which IC50 [3] is on record?
A: 79.7 µM (active)

Q: Which EC50 [1] does the source give for `Cc1cc(Cl)ccc1NNC(=O)c1c(C)noc1C` here?
A: 32.7 µM (active)

Q: And the EC50 [2]?
A: > 38 µM (not active)

Q: For `CN1CCc2c(sc3c2C(=O)NC(c2ccccn2)N3)C1` (configuration not stated), which IC50 (Nonstructural protein 1) is on record?
A: 13.7 µM (active)

Q: What about the EC50 [4] of the same molecule?
A: 14.3 µM (active)

Q: What about the EC50 [5] of the same molecule?
A: 15.1 µM (active)

Q: Which EC50 (Protein RecA) does the source give for `COc1cc(OC)cc(-c2nnc(Sc3ccc(C=O)cc3[N+](=O)[O-])o2)c1` here?
A: 2.04 µM (active)

Q: And the EC50 [6]?
A: > 260 µM (inactive)

Q: And the AC50 [7]?
A: 6.58 µM (active)

Q: For `O=C(COC(=O)c1cccc(S(=O)(=O)N2CCOCC2)c1)NCc1ccccc1`, which AC50 [8] is on record?
A: 59.6 µM (active)

Q: For `COc1ccc(S(=O)(=O)NC[C@@H]2CC[C@H]3[C@H](CN3Cc3cc(F)ccc3F)O2)cc1`, which AC50 [8] is on record?
A: 1.21 µM (active)

Q: With `O=C(C[C@@H]1C[C@H]2c3cc(NC(=O)C4CCC4)ccc3O[C@H]2[C@H](CO)O1)NCC(F)(F)F` as the molecule, how does the AC50 [8] read?
A: 1.7 µM (active)

Q: Which IC50 (Nonstructural protein 1) does the source give for `NC(=S)N/N=C/c1ccccc1O` here?
A: 14.1 µM (active)

Q: And the AC50 (INS1)?
A: 0.945 µM (active)

Q: For `CSc1nc(Cl)c(C#N)c(-c2ccc(C)cc2)n1`, which EC50 [1] is on record?
A: > 150 µM (inconclusive)

Q: And the EC50 [2]?
A: 1.55 µM (active)

Q: With `O=[N+]([O-])c1cc(/C=N/Nc2nc(N3CCCCC3)nc(N3CCCCC3)n2)ccc1O` as the molecule, how does the IC50 (Nonstructural protein 1) read?
A: > 100 µM (active)

Q: For `O=C(Cc1cccs1)N/N=C\c1ccc(O)cc1`, which IC50 [3] is on record?
A: 39.3 µM (active)

Q: Which EC50 [1] does the source give for `CCOC(=O)CC(/C(C)=N\O)c1ccccc1` (configuration not stated) here?
A: > 160 µM (inactive)

Q: What about the EC50 [2] of the same molecule?
A: > 38 µM (not active)

— ChEMBL document CHEMBL1201862, “PubChem BioAssay data set” (2004)
